Tests used:
Test in all cases: relative viability (nuclei count vs DMSO), 5 days (fraction); higher = more cells survive
[1] = compound: CCC1=CN=CN=C1N2CCN(CC2)CC3=NC4=C(N3)C=C(C=C4)C(F)(F)F + N=C(N)NC(=N)NCCc1ccccc1 [Phenformin] (partner 250 µM)
How it was run: (§1)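 Cells from lung cancer lines were seeded into 1536-well plates and, one day later, dosed by pin tool. Treatments were either a single drug or a fixed dose of an anchor drug with five library-drug doses (not always all listed) in √10 steps. After 5 days, nuclei were stained in a one-step fixation (final 0.05% Triton X-100, 1% formaldehyde, 1 ug/ml Hoechst) and counted on 4× images, and relative viability is the treated-to-vehicle nuclei ratio, as the median of duplicate plates.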

[2] = compound: CCn1c(-c2nonc2N)nc2cnc(Oc3cccc(NC(=O)c4ccc(OCCN5CCOCC5)cc4)c3)cc21 + CCNC(=O)c1noc(-c2cc(C(C)C)c(O)cc2O)c1-c1ccc(CN2CCOCC2)cc1 [Luminespib] (partner 0.01 µM)
How it was run: as §1

[3] = compound: CCn1c(-c2nonc2N)nc2cnc(Oc3cccc(NC(=O)c4ccc(OCCN5CCOCC5)cc4)c3)cc21 + C[C@@H](Oc1cc(-c2cnn(C3CCNCC3)c2)cnc1N)c1c(Cl)ccc(F)c1Cl [Crizotinib] (partner 1 µM)
How it was run: as §1

Mirin + Lapatinib = compound: N=C1NC(=O)/C(=C/c2ccc(O)cc2)S1 [Mirin] + CS(=O)(=O)CCNCc1ccc(-c2ccc3ncnc(Nc4ccc(OCc5cccc(F)c5)c(Cl)c4)c3c2)o1 [Lapatinib] (partner 2 µM)
How it was run: as §1

Cell Line | relative viability ([1]; first compound 0.04 µM) | relative viability ([1]; first compound 0.1265 µM) | relative viability ([1]; first compound 0.4 µM) | relative viability ([1]; first compound 1.265 µM) | relative viability ([1]; first compound 4 µM) | relative viability ([2]; first compound 0.04 µM) | relative viability ([2]; first compound 0.1265 µM) | relative viability ([2]; first compound 0.4 µM) | relative viability ([2]; first compound 1.265 µM) | relative viability ([2]; first compound 4 µM) | relative viability ([3]; first compound 0.04 µM) | relative viability ([3]; first compound 0.1265 µM) | relative viability ([3]; first compound 0.4 µM) | relative viability ([3]; first compound 1.265 µM) | relative viability ([3]; first compound 4 µM) | relative viability (Mirin + Lapatinib; first compound 0.25 µM) | relative viability (Mirin + Lapatinib; first compound 0.7906 µM) | relative viability (Mirin + Lapatinib; first compound 2.5 µM) | relative viability (Mirin + Lapatinib; first compound 7.906 µM) | relative viability (Mirin + Lapatinib; first compound 25 µM)
201T | 0.517 | 0.455 | 0.474 | 0.431 | 0.442 | 1.1 | 1.02 | 1.05 | 1.06 | 1.07 | 1 | 1.02 | 1.03 | 1.03 | 0.964 | 0.98 | 0.964 | 1.01 | 1.09 | 1.08
A549 | 0.178 | 0.143 | 0.191 | 0.161 | 0.164 |  |  |  |  |  | 0.837 | 0.417 | 0.223 | 0.086 | 0.114 | 0.914 | 1.15 | 1.04 | 1.08 | 0.598
A-427 | 0.3 | 0.292 | 0.225 | 0.234 | 0.224 | 1.14 | 0.974 | 0.627 | 0.416 | 0.524 | 0.966 | 1.08 | 0.846 | 0.998 | 0.879 | 1.12 |  | 1.17 | 1.05 | 1.08
ABC-1 | 0.262 | 0.238 | 0.223 | 0.243 | 0.268 | 0.633 | 0.617 | 0.367 | 0.254 | 0.248 | 1.7 | 0.973 | 1 | 0.608 | 0.396 | 1.04 | 1.33 | 1.17 | 1.16 | 0.95
BEN | 0.254 | 0.255 | 0.229 | 0.253 | 0.265 | 0.496 | 0.235 | 0.158 | 0.163 | 0.249 | 0.818 | 0.869 | 0.631 | 0.318 | 0.303 | 0.507 | 0.942 | 0.721 | 0.656 | 0.457
CAL-12T | 0.551 | 0.616 | 0.626 | 0.548 | 0.643 | 0.687 | 0.444 | 0.287 | 0.379 | 0.286 | 0.74 | 0.5 | 0.371 | 0.298 | 0.215 | 0.702 |  | 0.92 |  | 0.238
COR-L23 | 0.387 | 0.411 | 0.473 | 0.409 | 0.521 | 0.62 | 0.463 | 0.447 | 0.15 | 0.106 | 0.598 | 0.341 | 0.329 | 0.133 | 0.107 | 0.796 | 1.08 | 0.907 | 0.999 | 0.914
COR-L 105 | 0.629 | 0.403 | 0.536 | 0.401 | 0.502 | 0.657 | 0.282 | 0.592 | 0.445 | 0.247 | 0.663 | 0.571 | 0.371 | 0.273 | 0.264 | 0.346 | 0.274 | 0.392 | 0.367 | 0.306
Calu-6 |  |  |  |  |  |  |  |  |  |  | 0.864 | 0.698 | 0.519 | 0.346 | 0.373 | 1.11 | 1.12 | 1.06 | 1.01 | 0.983
ChaGo-K-1 | 0.462 | 0.5 | 0.409 | 0.443 | 0.482 | 0.586 | 0.691 | 0.706 | 0.48 | 0.454 | 1.31 | 1.04 | 0.96 |  | 0.633 |  |  |  |  | 
EBC-1 |  |  |  |  |  |  |  |  |  |  | 0.227 | 0.207 | 0.175 | 0.17 | 0.136 | 0.203 | 0.208 | 0.219 | 0.201 | 0.221
EKVX | 0.25 | 0.213 | 0.235 |  | 0.22 | 1.03 | 0.807 | 0.898 | 0.765 | 0.645 | 1.14 | 0.994 | 0.893 | 0.724 | 0.788 | 0.213 | 0.192 | 0.23 | 0.215 | 0.256
EMC-BAC-2 | 0.515 | 0.506 | 0.523 |  | 0.557 | 1.13 | 1.16 | 1.1 | 0.863 | 0.662 | 0.904 | 0.823 | 0.789 | 0.733 | 0.701 | 0.955 | 0.902 | 0.954 | 0.918 | 0.88
EPLC-272H | 0.308 | 0.333 | 0.299 | 0.325 | 0.337 | 0.263 | 0.697 | 0.265 | 0.26 | 0.286 | 1.24 | 1.12 | 0.83 | 0.871 | 0.932 | 0.9 |  | 0.886 | 0.83 | 0.664
H3255 | 0.398 | 0.42 | 0.347 | 0.352 | 0.392 | 1.02 | 0.819 | 0.735 | 0.571 | 0.599 | 1.13 | 0.815 | 0.725 | 0.49 | 0.637 | 0.25 | 0.307 | 0.236 | 0.241 | 0.218
HARA | 0.464 | 0.368 | 0.305 |  | 0.472 | 0.839 | 1.18 | 0.682 | 0.801 | 0.678 | 1.15 | 1.08 | 1.1 | 0.335 | 0.241 | 0.836 | 0.747 | 0.742 | 0.652 | 0.665
HCC-15 | 0.487 | 0.46 | 0.465 | 0.445 | 0.434 | 0.301 | 0.227 | 0.376 | 0.207 | 0.249 | 0.961 | 0.746 | 0.723 | 0.75 | 0.772 | 0.874 | 0.546 | 0.9 | 0.803 | 0.79
HCC-44 | 0.176 | 0.208 | 0.266 | 0.28 | 0.247 | 0.772 | 0.974 | 0.478 | 0.17 | 0.126 | 0.784 | 1.03 | 0.83 | 0.411 | 0.248 | 1.07 | 1.12 | 1.05 | 1.04 | 1.28

— the supplement of paper PMC10307832
